In patent US8962608B2, “Cycloalkylnitrile pyrazole carboxamides as janus kinase inhibitors” (Merck Sharp & Dohme Corp., priority 2011, dated 2015) one finds IC50 data, which are given here for eight molecules.

As usually defined, the IC50 is the concentration that gives 50% inhibition.

Assay [1] has as its target JAK1 (recombinant purified GST-tagged catalytic domain) (Homo sapiens (Human), UniProt P23458). The assay can be described thus: biochemical.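 Also: biochemical assay with HTRF read-out.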
The target of assay [2] is JAK2 (recombinant purified GST-tagged catalytic domain) (Homo sapiens (Human), UniProt O60674). The assay can be described thus: biochemical.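 Also: biochemical JAK kinase assay with HTRF detection.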
Chain of JAK2 (recombinant purified GST-tagged catalytic domain) (O60674 849-1124): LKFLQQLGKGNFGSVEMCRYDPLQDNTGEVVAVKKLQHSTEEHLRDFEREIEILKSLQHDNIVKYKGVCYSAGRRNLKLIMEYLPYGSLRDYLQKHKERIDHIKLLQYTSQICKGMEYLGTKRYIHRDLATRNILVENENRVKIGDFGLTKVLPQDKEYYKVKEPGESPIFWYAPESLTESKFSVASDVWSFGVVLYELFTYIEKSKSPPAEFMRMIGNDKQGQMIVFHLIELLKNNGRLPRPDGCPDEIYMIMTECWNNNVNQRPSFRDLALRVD

Chain of JAK1 (recombinant purified GST-tagged catalytic domain) (P23458 875-1153): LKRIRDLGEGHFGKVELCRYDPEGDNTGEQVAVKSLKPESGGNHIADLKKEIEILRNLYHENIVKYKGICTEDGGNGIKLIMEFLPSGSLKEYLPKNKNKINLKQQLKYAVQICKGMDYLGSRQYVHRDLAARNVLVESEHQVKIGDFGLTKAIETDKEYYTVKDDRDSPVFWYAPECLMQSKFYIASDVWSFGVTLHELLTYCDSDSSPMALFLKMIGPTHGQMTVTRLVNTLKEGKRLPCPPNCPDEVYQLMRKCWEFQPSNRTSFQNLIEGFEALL

As for `CC(C)(O)C1CN([C@@H]2CC[C@H](n3cc(C(N)=O)c(Nc4ccc(C(F)(F)F)cc4)n3)[C@@H](C#N)C2)C1` (single isomer, unassigned) [Example 28-7, 1-{(1S,2S,4R or 1R,2R,4S)-2-cyano-4-[3-(1-hydroxy-1-methylethyl)azetidin-1-yl]cyclohexyl}-3-{[4-(trifluoro-methyl)phenyl]amino}-1H-pyrazole-4-carboxamide], the IC50 in assay [1] worked out at 0.4 nM; in assay [2] it was 49 nM.
The matching figures for `N#C[C@H]1C[C@@H](NCC2CC2)CC[C@@H]1n1cc(C(N)=O)c(Nc2ccc(C(F)(F)F)cc2)n1` (single isomer, unassigned) [Example 28-10, 1-{(1S,2S,4S or 1R,2R,4R)-2-cyano-4-[(cyclopropyl-methyl)amino]cyclohexyl}-3-{[4-(trifluoromethyl)phenyl]amino}-1H-pyrazole-4-carboxamide]: 3 nM and 64 nM.
The matching figures for `N#C[C@H]1C[C@H](N2C[C@@H]3[C@@H](CO)[C@@H]3C2)CC[C@@H]1n1cc(C(N)=O)c(Nc2ccc(C(F)(F)F)cc2)n1` (single isomer, unassigned) [Example 28-15, 1-{(1S,2S,4R or 1R,2R,4S)-2-cyano-4-[(1R,5S,6R or 1S,5R,6S)-6-(hydroxymethyl)-3-azabicyclo[3.1.0]hex-3-yl]cyclohexyl}-3-{[4-(trifluoromethyl)phenyl]amino}-1H-pyrazole-4-carboxamide]: 0.9 nM and 22 nM.
The matching figures for `N#C[C@H]1C[C@@H](NCC2(O)CC2)CC[C@@H]1n1cc(C(N)=O)c(Nc2ccc(C(F)(F)F)cc2)n1` (single isomer, unassigned) [Example 28-23, 1-[(1S,2S,4S or 1R,2R,4R)-2-cyano-4-{[(1-hydroxycyclo-propyl)methyl]amino}cyclo-hexyl]-3-{[4-(trifluoromethyl)phenyl]amino}-1H-pyrazole-4-carboxamide]: 0.45 nM and 23 nM.
Consider `CC(C)(O)C1CN([C@H]2CC[C@H](n3cc(C(N)=O)c(Nc4ccc(C(F)(F)F)cc4)n3)[C@@H](C#N)C2)C1` (single isomer, unassigned) [Example 28-28, 1-{(1S,2S,4S or 1R,2R,4R)-2-cyano-4-[3-(1-hydroxy-1-methylethyl)azetidin-1-yl]cyclohexyl}-3-{[4-(trifluoromethyl)phenyl]amino}-1H-pyrazole-4-carboxamide], for which the IC50 in assay [1] worked out at 3 nM; in assay [2], 77 nM.
The matching figures for `N#C[C@H]1C[C@@H](N2C[C@@H]3[C@@H](CO)[C@@H]3C2)CC[C@@H]1n1cc(C(N)=O)c(Nc2ccc(C(F)(F)F)cc2)n1` (single isomer, unassigned) [Example 28-34, 1-{(1S,2S,4S or 1R,2R,4R)-2-cyano-4-[(1R,5S,6S or 1S,5R,6R)-6-(hydroxymethyl)-3-azabicyclo[3.1.0]hex-3-yl]cyclohexyl}-3-{[4-(trifluoromethyl)phenyl]amino}-1H-pyrazole-4-carboxamide]: 0.6 nM and 20 nM.
The matching figures for `N#C[C@H]1C[C@H](NCC2(O)CC2)CC[C@@H]1n1cc(C(N)=O)c(Nc2ccc(C(F)(F)F)cc2)n1` (single isomer, unassigned) [Example 28-35, 1-[(1S,2S,4R or 1R,2R,4S)-2-cyano-4-{[(1-hydroxycyclo-propyl)methyl]amino}cyclo-hexyl]-3-{[4-(trifluoro-methyl)phenyl]amino}-1H-pyrazole-4-carboxamide]: 1 nM and 48 nM.
The matching figures for `CN(C)[C@@H]1CC[C@H](n2cc(C(N)=O)c(Nc3ccc(Cl)c(F)c3)n2)[C@@H](C#N)C1` (single isomer, unassigned) [Example 28-38, 3-[(4-chloro-3-fluorophenyl)amino]-1-[(1S,2S,4R or 1R,2R,4S)-2-cyano-4-(dimethylamino)cyclohexyl]-1H-pyrazole-4-carboxamide]: 7 nM and 173 nM.
